Experimental data: ChEMBL document CHEMBL5136972, “Targeting SARS-CoV-2 Proteases and Polymerase for COVID-19 Treatment: State of the Art and Future Opportunities” (J Med Chem, 2022)
pKi: −log10 of the molar value.

Target: Replicase polyprotein 1ab (Severe acute respiratory syndrome coronavirus 2, UniProt P0DTD1)

Cc1cc(C(=O)N[C@@H](C)C(=O)N[C@H](C(=O)N[C@@H](CC(C)C)C(=O)N[C@H](/C=C/C(=O)OCc2ccccc2)C[C@@H]2CCNC2=O)C(C)C)no1
pKi: 5.05
